# Results from US20260285850A1, “SUBSTITUTED OXAZOLIDINONES AND IMIDAZOLINONES AS HERBICIDES” (FMC CORPORATION, priority 2023, published 2026).
# Columns and labels:
# Format in all cases: in vivo
# [1] = tested on: barnyardgrass (Echinochloa crusgalli); assay: Test B flooded paddy test, visual plant response rating 0-100; conditions: 250 g ai/ha, Flood, applied to paddy water, evaluated after 13 days
# Summary of the method: (§1)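 Compounds applied to standing paddy water (3 cm above soil, maintained for the test duration) on 2-leaf-stage plants; visual rating vs controls at 13 days, greenhouse.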
# [2] = tested on: ducksalad (Heteranthera limosa); assay: as above; conditions: 250 g ai/ha, Flood, applied to paddy water, evaluated after 13 days
# Summary of the method: as §1
# [3] = tested on: sedge, umbrella (small-flower umbrella sedge, Cyperus difformis); assay: as above; conditions: 250 g ai/ha, Flood, applied to paddy water, evaluated after 13 days
# Summary of the method: as §1
# rice (Oryza sativa) = assay: as above; conditions: 250 g ai/ha, Flood, applied to paddy water, evaluated after 13 days
# Summary of the method: as §1
# [4] = tested on: barnyardgrass (Echinochloa crus-galli); assay: Test A preemergence soil spray, visual injury rating 0-100; conditions: 10 days
# Summary of the method: (§2)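 Directed preemergence spray onto seeded soil or postemergence spray onto 2-10 cm plants (loam plus sand); compound carried in surfactant-containing non-phytotoxic solvent. Injury rated by eye after 10 d greenhouse growth; 0 = no effect, 100 = complete control.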
# [5] = tested on: oat, wild (wild oat, Avena fatua); assay: as above; conditions: 10 days
# Summary of the method: as §2
# corn (Zea mays) [6] = assay: as above; conditions: 10 days
# Summary of the method: as §2
# [7] = tested on: blackgrass (Alopecurus myosuroides); assay: as above; conditions: 10 days
# Summary of the method: as §2
# soybean (Glycine max) [8] = assay: as above; conditions: 10 days
# Summary of the method: as §2
# kochia (Bassia scoparia) [9] = assay: as above; conditions: 10 days
# Summary of the method: as §2
# [10] = tested on: palmer (palmer amaranth, palmer pigweed, Amaranthus palmeri); assay: as above; conditions: 10 days
# Summary of the method: as §2
# [11] = tested on: wheat (Triticum aestivum); assay: as above; conditions: 10 days
# Summary of the method: as §2
# [12] = tested on: ryegrass, Italian (italian ryegrass, Lolium multiflorum); assay: as above; conditions: 10 days
# Summary of the method: as §2
# [13] = tested on: green foxtail (Setaria viridis); assay: as above; conditions: 10 days
# Summary of the method: as §2
# [14] = tested on: ragweed (common ragweed, Ambrosia artemisiifolia); assay: as above; conditions: 10 days
# Summary of the method: as §2
# [15] = tested on: barnyardgrass (Echinochloa crus-galli); assay: Test A postemergence application, visual injury rating 0-100
# Summary of the method: as §2
# [16] = tested on: oat, wild (wild oat, Avena fatua); assay: as above
# Summary of the method: as §2
# corn (Zea mays) [17] = assay: as above
# Summary of the method: as §2
# [18] = tested on: blackgrass (Alopecurus myosuroides); assay: as above
# Summary of the method: as §2
# soybean (Glycine max) [19] = assay: as above
# Summary of the method: as §2
# kochia (Bassia scoparia) [20] = assay: as above
# Summary of the method: as §2
# [21] = tested on: palmer (palmer amaranth, palmer pigweed, Amaranthus palmeri); assay: as above
# Summary of the method: as §2
# [22] = tested on: wheat (Triticum aestivum); assay: as above
# Summary of the method: as §2
# [23] = tested on: galium (catchweed bedstraw, Galium aparine); assay: as above
# Summary of the method: as §2
# [24] = tested on: ryegrass, Italian (italian ryegrass, Lolium multiflorum); assay: as above
# Summary of the method: as §2
# [25] = tested on: horseweed (Erigeron canadensis); assay: as above
# Summary of the method: as §2
# [26] = tested on: green foxtail (Setaria viridis); assay: as above
# Summary of the method: as §2
# [27] = tested on: ragweed (common ragweed, Ambrosia artemisiifolia); assay: as above
# Summary of the method: as §2
# [28] = 62 g ai/ha, 0 = no effect, 100 = complete control
# [29] = 62 g ai/ha, postemergence, 10 days, 0 = no effect, 100 = complete control
# [30] = Postemergence, 16 g ai/ha, greenhouse 10 days, 0 no effect, 100 complete control
structure (smiles),measurement,setting,value
CC1(C(=O)NC2CC=C(C(=O)NS(=O)(=O)C(C)(C)C)C2)CN(c2cc(F)cc(F)c2)C(=O)O1 (racemic) [Compound 91],"Plant response rating, Barnyardgrass (0 to 100 scale, 0 is no effect and 100 is complete control)",[1],0
same,"Plant response rating, Ducksalad (0 to 100 scale, 0 is no effect and 100 is complete control)",[2],0
same,"Plant response rating, Sedge, Umbrella (0 to 100 scale, 0 is no effect and 100 is complete control)",[3],0
same,"Plant response rating, Rice (0 to 100 scale, 0 is no effect and 100 is complete control)",rice (Oryza sativa),0
same,Barnyardgrass plant response rating,"[4]; 16 g ai/ha, 0 to 100 scale",0
same,Barnyardgrass plant response rating (0-100),[4]; [28],10
same,"Oat, Wild plant response rating","[5]; 16 g ai/ha, 0 to 100 scale",0
same,"Oat, Wild plant response rating (0-100)",[5]; [28],0
same,Corn plant response rating,"corn (Zea mays) [6]; 16 g ai/ha, 0 to 100 scale",0
same,Corn plant response rating (0-100),corn (Zea mays) [6]; [28],0
same,Blackgrass plant response rating,"[7]; 16 g ai/ha, 0 to 100 scale",0
same,Blackgrass plant response rating (0-100),[7]; [28],0
same,Soybean plant response rating,"soybean (Glycine max) [8]; 16 g ai/ha, 0 to 100 scale",0
same,Soybean plant response rating (0-100),soybean (Glycine max) [8]; [28],0
same,Kochia plant response rating,"kochia (Bassia scoparia) [9]; 16 g ai/ha, 0 to 100 scale",0
same,Kochia plant response rating (0-100),kochia (Bassia scoparia) [9]; [28],0
same,"Pigweed, Palmer plant response rating","[10]; 16 g ai/ha, 0 to 100 scale",0
same,"Pigweed, Palmer plant response rating (0-100)",[10]; [28],0
same,Wheat plant response rating,"[11]; 16 g ai/ha, 0 to 100 scale",0
same,Wheat plant response rating (0-100),[11]; [28],0
same,"Ryegrass, Italian plant response rating","[12]; 16 g ai/ha, 0 to 100 scale",0
same,"Ryegrass, Italian plant response rating (0-100)",[12]; [28],0
same,"Foxtail, Green plant response rating","[13]; 16 g ai/ha, 0 to 100 scale",0
same,"Foxtail, Green plant response rating (0-100)",[13]; [28],0
same,Ragweed plant response rating,"[14]; 16 g ai/ha, 0 to 100 scale",0
same,Ragweed plant response rating (0-100),[14]; [28],0
same,Barnyardgrass plant response rating (0-100),[15]; [29],40
same,Barnyardgrass plant response rating (0 to 100 scale),[15]; [30],0
same,"Oat, Wild plant response rating (0-100)",[16]; [29],20
same,"Oat, Wild plant response rating (0 to 100 scale)",[16]; [30],0
same,Corn plant response rating (0-100),corn (Zea mays) [17]; [29],30
same,Corn plant response rating (0 to 100 scale),corn (Zea mays) [17]; [30],0
same,Blackgrass plant response rating (0-100),[18]; [29],10
same,Blackgrass plant response rating (0 to 100 scale),[18]; [30],0
same,Soybean plant response rating (0-100),soybean (Glycine max) [19]; [29],30
same,Soybean plant response rating (0 to 100 scale),soybean (Glycine max) [19]; [30],0
same,Kochia plant response rating (0-100),kochia (Bassia scoparia) [20]; [29],40
same,Kochia plant response rating (0 to 100 scale),kochia (Bassia scoparia) [20]; [30],0
same,"Pigweed, Palmer plant response rating (0-100)",[21]; [29],50
same,"Pigweed, Palmer plant response rating (0 to 100 scale)",[21]; [30],0
same,Wheat plant response rating (0-100),[22]; [29],50
same,Wheat plant response rating (0 to 100 scale),[22]; [30],0
same,Galium plant response rating (0-100),[23]; [29],10
same,Galium plant response rating (0 to 100 scale),[23]; [30],0
same,"Ryegrass, Italian plant response rating (0-100)",[24]; [29],40
same,"Ryegrass, Italian plant response rating (0 to 100 scale)",[24]; [30],0
same,Horseweed plant response rating (0-100),[25]; [29],0
same,Horseweed plant response rating (0 to 100 scale),[25]; [30],10
same,"Foxtail, Green plant response rating (0-100)",[26]; [29],20
same,"Foxtail, Green plant response rating (0 to 100 scale)",[26]; [30],0
same,Ragweed plant response rating (0-100),[27]; [29],20
same,Ragweed plant response rating (0 to 100 scale),[27]; [30],0
